Experimental data taken from publication PMC5218480 (PLoS ONE, 2017).

System: MV-4-11 cells
Assay: Gene expression microarray analysis (Affymetrix PrimeView) and GSEA
Type: cell-based, human
Set-up: RFU PODN (11730768_x_at) / Fold change /veh PODN (11730768_x_at) / RFU LINC00158 (11744669_a_at) / Fold change /veh LINC00158 (11744669_a_at) / RFU DUSP10 (11751237_a_at) / Fold change /veh DUSP10 (11751237_a_at) / RFU ID3 (11757404_x_at) / Fold change /veh ID3 (11757404_x_at) / RFU PLEKHG5 (11737974_s_at) / Fold change /veh PLEKHG5 (11737974_s_at) / RFU LRRC4B (11730491_at) / Fold change /veh LRRC4B (11730491_at) / RFU GIMAP4 (11747438_a_at) / Fold change /veh GIMAP4 (11747438_a_at) / RFU KRT8 (11758183_x_at) / Fold change /veh KRT8 (11758183_x_at) / RFU CNN1 (11734310_a_at) / Fold change /veh CNN1 (11734310_a_at) / RFU VPS37D (11726825_at) / Fold change /veh VPS37D (11726825_at) / RFU C10orf10 (11716522_x_at) / Fold change /veh C10orf10 (11716522_x_at) / RFU KIR2DL2 /// KIR2DL4 /// KIR2DL5A /// KIR2DL5B /// KIR2DS1 /// KIR2DS2 /// KIR2DS3 /// KIR2DS4 /// KIR3DL3 /// KIR3DL3 /// KIR3DS1 (11738374_at) / Fold change /veh KIR2DL2 /// KIR2DL4 /// KIR2DL5A /// KIR2DL5B /// KIR2DS1 /// KIR2DS2 /// KIR2DS3 /// KIR2DS4 /// KIR3DL3 /// KIR3DL3 /// KIR3DS1 (11738374_at) / RFU C1QL1 (11718748_at) / Fold change /veh C1QL1 (11718748_at) / RFU TMPRSS4 (11747572_a_at) / Fold change /veh TMPRSS4 (11747572_a_at) / RFU HAMP (11756126_x_at) / Fold change /veh HAMP (11756126_x_at) / RFU RNFT2 (11725882_a_at) / Fold change /veh RNFT2 (11725882_a_at) / RFU NR4A2 (11747474_a_at) / Fold change /veh NR4A2 (11747474_a_at) / RFU ABCC12 (11746883_a_at) / Fold change /veh ABCC12 (11746883_a_at) / RFU TMEM136 (11760407_x_at) / Fold change /veh TMEM136 (11760407_x_at) / RFU CLDN22 /// WWC2 (11732394_at) / Fold change /veh CLDN22 /// WWC2 (11732394_at) / RFU HLA-DPB1 (11760878_x_at) / Fold change /veh HLA-DPB1 (11760878_x_at) / RFU SPINT1 (11716480_a_at) / Fold change /veh SPINT1 (11716480_a_at) / RFU GAP43 (11754022_s_at) / Fold change /veh GAP43 (11754022_s_at) / RFU A4GNT (11735810_at) / Fold change /veh A4GNT (11735810_at) / RFU PRB3 (11715151_x_at) / Fold change /veh PRB3 (11715151_x_at) / RFU TUBB4B (11761932_at) / Fold change /veh TUBB4B (11761932_at) / RFU CAPN14 (11732068_a_at) / Fold change /veh CAPN14 (11732068_a_at) / RFU TMCC2 (11721928_a_at) / Fold change /veh TMCC2 (11721928_a_at) / RFU IRGQ (11745062_a_at) / Fold change /veh IRGQ (11745062_a_at) / RFU FAM174B (11720279_a_at) / Fold change /veh FAM174B (11720279_a_at) / RFU TMPRSS4 (11748680_a_at) / Fold change /veh TMPRSS4 (11748680_a_at) / RFU FAM212B (11763350_a_at) / Fold change /veh FAM212B (11763350_a_at) / RFU PLEKHG5 (11743358_a_at) / Fold change /veh PLEKHG5 (11743358_a_at) / RFU ZSCAN30 (11745921_a_at) / Fold change /veh ZSCAN30 (11745921_a_at) / RFU CMKLR1 (11741424_a_at) / Fold change /veh CMKLR1 (11741424_a_at) / RFU LOC101060620 /// MAPK8IP1 (11723275_at) / Fold change /veh LOC101060620 /// MAPK8IP1 (11723275_at) / RFU SPTSSB (11747773_x_at) / Fold change /veh SPTSSB (11747773_x_at) / RFU PRSS12 (11739890_at) / Fold change /veh PRSS12 (11739890_at) / RFU BIN1 (11741810_x_at) / Fold change /veh BIN1 (11741810_x_at) / RFU WNT11 (11732464_a_at) / Fold change /veh WNT11 (11732464_a_at) / RFU C10orf10 (11716521_a_at) / Fold change /veh C10orf10 (11716521_a_at) / RFU C5orf56 (11738089_at) / Fold change /veh C5orf56 (11738089_at) / RFU CYB561 (11721691_x_at) / Fold change /veh CYB561 (11721691_x_at) / RFU ANKRD19P (11752326_a_at) / Fold change /veh ANKRD19P (11752326_a_at) / RFU OR2T12 /// OR2T33 /// OR2T8 (11738714_s_at) / Fold change /veh OR2T12 /// OR2T33 /// OR2T8 (11738714_s_at) / RFU VCAN (11748164_a_at) / Fold change /veh VCAN (11748164_a_at) / RFU JSRP1 (11732532_at) / Fold change /veh JSRP1 (11732532_at) / RFU KRTAP10-11 (11738290_x_at) / Fold change /veh KRTAP10-11 (11738290_x_at) / RFU MYO3A (11730013_a_at) / Fold change /veh MYO3A (11730013_a_at) / RFU EBF3 (11725865_a_at) / Fold change /veh EBF3 (11725865_a_at) / RFU CAMK2N1 (11719241_x_at) / Fold change /veh CAMK2N1 (11719241_x_at) / RFU C5orf56 (11738088_a_at) / Fold change /veh C5orf56 (11738088_a_at) / RFU OLFML3 (11715873_a_at) / Fold change /veh OLFML3 (11715873_a_at) / RFU LOC100653217 /// NTM (11731650_a_at) / Fold change /veh LOC100653217 /// NTM (11731650_a_at) / RFU MAPK11 (11762145_a_at) / Fold change /veh MAPK11 (11762145_a_at) / RFU FIZ1 (11724087_x_at) / Fold change /veh FIZ1 (11724087_x_at) / RFU OASL (11726364_x_at) / Fold change /veh OASL (11726364_x_at) / RFU SOX15 (11748057_x_at) / Fold change /veh SOX15 (11748057_x_at) / RFU CD79A (11719716_a_at) / Fold change /veh CD79A (11719716_a_at) / RFU HIST1H1D (11736915_at) / Fold change /veh HIST1H1D (11736915_at) / RFU CASKIN2 (11723855_a_at) / Fold change /veh CASKIN2 (11723855_a_at) / RFU LOC730098 (11760151_x_at) / Fold change /veh LOC730098 (11760151_x_at) / RFU OR4N2 (11742367_at) / Fold change /veh OR4N2 (11742367_at) / RFU PRRT2 (11749266_a_at) / Fold change /veh PRRT2 (11749266_a_at) / RFU SNX32 (11753110_a_at) / Fold change /veh SNX32 (11753110_a_at) / RFU CDHR5 (11726645_a_at) / Fold change /veh CDHR5 (11726645_a_at) / RFU RCAN1 (11760418_a_at) / Fold change /veh RCAN1 (11760418_a_at) / RFU FAM167A (11723789_a_at) / Fold change /veh FAM167A (11723789_a_at) / RFU FAM26E (11764081_at) / Fold change /veh FAM26E (11764081_at) / RFU ISYNA1 (11749810_s_at) / Fold change /veh ISYNA1 (11749810_s_at) / RFU ACY1 (11761880_at) / Fold change /veh ACY1 (11761880_at) / RFU 11764098_at / Fold change /veh 11764098_at / RFU SAMD14 (11745864_x_at) / Fold change /veh SAMD14 (11745864_x_at) / RFU NPB (11741838_a_at) / Fold change /veh NPB (11741838_a_at) / RFU TMPRSS6 (11731388_a_at) / Fold change /veh TMPRSS6 (11731388_a_at) / RFU KRTAP10-2 (11738614_at) / Fold change /veh KRTAP10-2 (11738614_at) / RFU ARHGAP8 /// PRR5-ARHGAP8 (11727945_x_at) / Fold change /veh ARHGAP8 /// PRR5-ARHGAP8 (11727945_x_at) / RFU KRTAP5-7 /// NADSYN1 (11734609_at) / Fold change /veh KRTAP5-7 /// NADSYN1 (11734609_at) / RFU RASL12 (11751679_a_at) / Fold change /veh RASL12 (11751679_a_at) / RFU CDKN2B (11736163_a_at) / Fold change /veh CDKN2B (11736163_a_at) / RFU PRF1 (11729649_at) / Fold change /veh PRF1 (11729649_at) / RFU, ZNF638 /// ZNF638-IT1 / Fold change vs veh, ZNF638 /// ZNF638-IT1 / RFU, PANK3 / Fold change vs veh, PANK3 / RFU, SH3YL1 / Fold change vs veh, SH3YL1 / RFU, ZEB2 / Fold change vs veh, ZEB2 / RFU, NRIP1 / Fold change vs veh, NRIP1 / RFU, PTTG1IP / Fold change vs veh, PTTG1IP / RFU, CAPN2 / Fold change vs veh, CAPN2 / RFU, MED14 / Fold change vs veh, MED14 / RFU, SNORA58 / Fold change vs veh, SNORA58 / RFU, C1orf63 / Fold change vs veh, C1orf63 / RFU, LRRFIP1 / Fold change vs veh, LRRFIP1 / RFU, NDUFAF7 / Fold change vs veh, NDUFAF7 / RFU, SLC12A2 / Fold change vs veh, SLC12A2 / RFU, IBTK / Fold change vs veh, IBTK / RFU, ESF1 / Fold change vs veh, ESF1 / Fold change vs veh, TMEM50B / RFU, TAOK1 / Fold change vs veh, TAOK1 / RFU, ACBD3 / Fold change vs veh, ACBD3 / RFU, TMA16 / Fold change vs veh, TMA16 / RFU, RWDD3 / Fold change vs veh, RWDD3 / RFU, BCAT1 / Fold change vs veh, BCAT1 / RFU, EDEM3 / Fold change vs veh, EDEM3 / RFU, TMEM33 / Fold change vs veh, TMEM33 / RFU, WDR75 / Fold change vs veh, WDR75 / RFU, AHCTF1 / Fold change vs veh, AHCTF1 / RFU, TFRC / Fold change vs veh, TFRC / RFU, ZDHHC17 / Fold change vs veh, ZDHHC17 / RFU, NOM1 / Fold change vs veh, NOM1 / RFU, ARL8B / Fold change vs veh, ARL8B / RFU, ZBTB11 / Fold change vs veh, ZBTB11 / RFU, TAMM41 / Fold change vs veh, TAMM41 / RFU, KIAA1704 /// LOC100996395 / Fold change vs veh, KIAA1704 /// LOC100996395 / RFU, ING1 / Fold change vs veh, ING1 / RFU, TRMT61B / Fold change vs veh, TRMT61B / RFU, FUBP3 / Fold change vs veh, FUBP3 / RFU, TP53 / Fold change vs veh, TP53 / RFU, TNKS2 / Fold change vs veh, TNKS2 / RFU, ZFP14 / Fold change vs veh, ZFP14 / RFU, ACTR2 / Fold change vs veh, ACTR2 / RFU, PPP3R1 / Fold change vs veh, PPP3R1 / RFU, PIK3R1 / Fold change vs veh, PIK3R1 / RFU, HNRNPA1 / Fold change vs veh, HNRNPA1 / RFU, RNF170 / Fold change vs veh, RNF170 / RFU, ZNF28 / Fold change vs veh, ZNF28 / RFU, RNGTT / Fold change vs veh, RNGTT / RFU, OGT / Fold change vs veh, OGT / RFU, BRD1 / Fold change vs veh, BRD1 / RFU, MARS / Fold change vs veh, MARS / RFU, ZNF655 / Fold change vs veh, ZNF655 / RFU, FAHD1 / Fold change vs veh, FAHD1 / RFU, BDP1 / Fold change vs veh, BDP1 / RFU, LRRCC1 / Fold change vs veh, LRRCC1 / RFU, ARID1A / Fold change vs veh, ARID1A / RFU, ZNF146 / Fold change vs veh, ZNF146 / RFU, ZNF330 / Fold change vs veh, ZNF330 / RFU, GPN3 / Fold change vs veh, GPN3 / RFU, C9orf123 / Fold change vs veh, C9orf123 / RFU, N4BP2L2 / Fold change vs veh, N4BP2L2 / RFU, ARFIP1 / Fold change vs veh, ARFIP1 / RFU, FAM179B / Fold change vs veh, FAM179B / RFU, BCL10 / Fold change vs veh, BCL10 / RFU, UHRF1BP1L / Fold change vs veh, UHRF1BP1L / RFU, BET1 / Fold change vs veh, BET1 / RFU, CNOT2 / Fold change vs veh, CNOT2 / RFU, ZNF268 / Fold change vs veh, ZNF268 / Fold change vs veh, ZNF507 / RFU, DGCR2 / Fold change vs veh, DGCR2 / RFU, WDSUB1 / Fold change vs veh, WDSUB1 / Fold change vs veh, HSP90B1 /// MIR3652 / RFU, ADSS / Fold change vs veh, ADSS / RFU, GK / Fold change vs veh, GK / RFU, ZNF148 / Fold change vs veh, ZNF148 / RFU, TAF9 / Fold change vs veh, TAF9 / RFU, SLC1A5 / Fold change vs veh, SLC1A5 / RFU, SLMO2 / Fold change vs veh, SLMO2 / RFU, ABCC4 / Fold change vs veh, ABCC4 / RFU, LOC101060439 /// RAP1B / Fold change vs veh, LOC101060439 /// RAP1B / RFU, RFX7 / Fold change vs veh, RFX7 / RFU, GTPBP10 / Fold change vs veh, GTPBP10 / RFU, CNEP1R1 / Fold change vs veh, CNEP1R1 / RFU, BIVM-ERCC5 /// ERCC5 / Fold change vs veh, BIVM-ERCC5 /// ERCC5 / RFU, ILF3 / Fold change vs veh, ILF3 / RFU 11762660_at / Fold change /veh 11762660_at / RFU VCAN (11757783_s_at) / Fold change /veh VCAN (11757783_s_at) / RFU DDX43 (11728927_at) / Fold change /veh DDX43 (11728927_at) / RFU KRT8 (11758188_x_at) / Fold change /veh KRT8 (11758188_x_at) / RFU NKD1 (11759106_at) / Fold change /veh NKD1 (11759106_at) / RFU SRD5A1 (11742802_a_at) / Fold change /veh SRD5A1 (11742802_a_at) / RFU TPSAB1 /// TPSB2 (11721975_s_at) / Fold change /veh TPSAB1 /// TPSB2 (11721975_s_at) / RFU GSTM3 (11746129_a_at) / Fold change /veh GSTM3 (11746129_a_at) / RFU IL23R (11737362_x_at) / Fold change /veh IL23R (11737362_x_at) / RFU TMEM51 (11727254_a_at) / Fold change /veh TMEM51 (11727254_a_at) / RFU PIWIL2 (11732686_x_at) / Fold change /veh PIWIL2 (11732686_x_at) / RFU ORM1 (11744905_x_at) / Fold change /veh ORM1 (11744905_x_at) / RFU CCDC152 (11743942_at) / Fold change /veh CCDC152 (11743942_at) / RFU ECM1 (11717891_a_at) / Fold change /veh ECM1 (11717891_a_at) / RFU IL23R (11748794_a_at) / Fold change /veh IL23R (11748794_a_at) / RFU TNFAIP8L3 (11732012_x_at) / Fold change /veh TNFAIP8L3 (11732012_x_at) / RFU MBOAT4 (11741988_at) / Fold change /veh MBOAT4 (11741988_at) / RFU 11764193_at / Fold change /veh 11764193_at / RFU TMEM53 (11763286_at) / Fold change /veh TMEM53 (11763286_at) / RFU MAGEB2 (11727129_at) / Fold change /veh MAGEB2 (11727129_at) / RFU TMEM200A (11744735_a_at) / Fold change /veh TMEM200A (11744735_a_at) / RFU CCDC152 (11751479_a_at) / Fold change /veh CCDC152 (11751479_a_at) / RFU FAM211A (11726209_a_at) / Fold change /veh FAM211A (11726209_a_at) / RFU RGS16 (11746705_a_at) / Fold change /veh RGS16 (11746705_a_at) / RFU VCAN (11755009_s_at) / Fold change /veh VCAN (11755009_s_at) / RFU RHOB (11743442_s_at) / Fold change /veh RHOB (11743442_s_at) / RFU RGS16 (11720943_a_at) / Fold change /veh RGS16 (11720943_a_at) / RFU RGS16 (11720944_at) / Fold change /veh RGS16 (11720944_at) / RFU, VPS4B / Fold change vs veh, VPS4B / RFU, CREB1 / Fold change vs veh, CREB1 / RFU, DNAJC13 / Fold change vs veh, DNAJC13 / RFU, GNAQ / Fold change vs veh, GNAQ / RFU, CDK5R1 / Fold change vs veh, CDK5R1 / RFU, ZRANB3 / Fold change vs veh, ZRANB3 / RFU, CUL4A / Fold change vs veh, CUL4A / RFU, CCNY / Fold change vs veh, CCNY / RFU, UFL1 / Fold change vs veh, UFL1 / RFU, COG3 / Fold change vs veh, COG3 / RFU, DIAPH2 / Fold change vs veh, DIAPH2 / RFU, SKA2 / Fold change vs veh, SKA2 / RFU, AFF3 / Fold change vs veh, AFF3 / RFU, LMF1 / Fold change vs veh, LMF1 / RFU, IPO11 / Fold change vs veh, IPO11 / RFU, DFFB / Fold change vs veh, DFFB / RFU, FOXP1 / Fold change vs veh, FOXP1 / RFU, CARD8 / Fold change vs veh, CARD8 / RFU, STRN3 / Fold change vs veh, STRN3 / RFU, ADK / Fold change vs veh, ADK / RFU, RASSF2 / Fold change vs veh, RASSF2 / RFU, WIPF1 / Fold change vs veh, WIPF1 / RFU, LARP1B / Fold change vs veh, LARP1B / RFU, RASA1 / Fold change vs veh, RASA1 / RFU, RB1 / Fold change vs veh, RB1 / RFU, PPFIA1 / Fold change vs veh, PPFIA1 / RFU, MAT2A / Fold change vs veh, MAT2A / RFU, CCT5 / Fold change vs veh, CCT5 / RFU, WDR92 / Fold change vs veh, WDR92 / RFU, CUX1 / Fold change vs veh, CUX1 / RFU, TTC7A / Fold change vs veh, TTC7A / RFU, TMEM135 / Fold change vs veh, TMEM135 / RFU, DEPTOR / Fold change vs veh, DEPTOR / RFU, CPM / Fold change vs veh, CPM / RFU, DNAJB6 / Fold change vs veh, DNAJB6 / RFU, CACNA2D3 / Fold change vs veh, CACNA2D3 / RFU, DTX4 / Fold change vs veh, DTX4 / RFU, TFCP2 / Fold change vs veh, TFCP2 / RFU, GMCL1 /// GMCL1P1 / Fold change vs veh, GMCL1 /// GMCL1P1 / RFU, AEBP2 / Fold change vs veh, AEBP2 / RFU, SNHG1 /// SNORD22 /// SNORD25 /// SNORD26 /// SNORD27 /// SNORD28 /// SNORD29 /// SNORD31 / Fold change vs veh, SNHG1 /// SNORD22 /// SNORD25 /// SNORD26 /// SNORD27 /// SNORD28 /// SNORD29 /// SNORD31 / Fold change (Aza/veh), C12orf56 (ProbeSet 11735607_a_at) / Fold change (ACY-1035/veh), C12orf56 (ProbeSet 11735607_a_at) / Fold change (Aza/veh), FGFR1OP (ProbeSet 11751329_s_at) / Fold change (ACY-1035/veh), FGFR1OP (ProbeSet 11751329_s_at) / Fold change (Aza/veh), VPS36 (ProbeSet 11739960_a_at) / Fold change (ACY-1035/veh), VPS36 (ProbeSet 11739960_a_at) / RFU SYPL1 (11715823_x_at) / Fold change /veh SYPL1 (11715823_x_at) / RFU IGFBP7 (11715501_s_at) / Fold change /veh IGFBP7 (11715501_s_at) / RFU REEP3 (11722064_at) / Fold change /veh REEP3 (11722064_at) / RFU IGLL1 (11728026_x_at) / Fold change /veh IGLL1 (11728026_x_at): dose or concentration left out as unconfirmed
Settings: MV-4-11 cells, 48 hours

Nc1ccc(-c2cccs2)cc1NC(=O)c1ccc2c(c1)cc(C1CC1)n2CCN1CCOCC1 [ACY-1035]
RFU CCDC152 (11751479_a_at): 4.13 RFU
